Reference: article PMC2866756 (Antiviral research, 2010)
Read-outs that look alike come from different tables or passages of the source. Marks after values point to notes of the source that are not given here.

Assays:
VZV [1] = assay: Antiviral assay, VZV genome copy number by quantitative PCR; assay type: cell-based, Varicella-zoster virus; conditions: read-out: VZV EC50 (qPCR)
VZV [2] = assay: Antiviral assay, VZV yield by infectious focus; assay type: cell-based, Varicella-zoster virus; conditions: for Selective Index: cytotoxic dose divided by the EC50 (plaque assay)
VZV-BAC-Luc [3] = assay: Skin organ culture; assay type: cell-based, Varicella-zoster virus; conditions: for antiviral effects in SOC compared with cultured HFFs: 2 dpi, same concentrations as in HFFs (EC99 doses); for effect on total flux in skin explants: SOC, EC99 doses: 400 μM acyclovir, 1 mM PAA, 1 mM L-mimosine, 50 μM DRB, 20 μM aphidicolin, 20 μM aloisine A, 20 μM purvalanol A, 25 μM roscovitine
HFFs = conditions: for Cell Growth Arrest Dose: lowest dose for which absorbance at 48 h was the same as at 0 h
VZV-BAC-Luc [4] = assay type: in vivo, Varicella-zoster virus; conditions: for effect on VZV growth rate in vivo: SCID-Hu mice, dose groups combined, 3 experiments
VZV [5] = assay: Attempt to isolate roscovitine-resistant VZV by continuous culture; assay type: cell-based, Varicella-zoster virus; conditions: 10 weeks of continuous culture at doses below the EC50, authors' observations
VZV [6] = conditions: ref Taylor et al., 2004; cited from earlier work
skin tissue = conditions: skin organ culture; ref Taylor and Moffat, 2005; cited from earlier work
[7] = Tolerability in SCID-Hu mice
[8] = HFFs, 48 h, ORF38 copies normalized to β-globin
[9] = read-out: VZV EC50 (titer), HFFs, 48 h, titered on MeWo cells
[10] = Human alphaherpesvirus 3, MeWo, 48 h, read-out: VZV EC50 (titer)
[11] = 0.7 mg/kg/day, s.c. osmotic pump, 7 days
[12] = 1.5 mg/kg/day, s.c. osmotic pump, 7 days
[13] = 2.8 mg/kg/day, s.c. osmotic pump, 7 days
[14] = 4.3 mg/kg/day, s.c. osmotic pump, 7 days
[15] = subconfluent HFFs, 48 h, fold change less than 1, * = solubility limit

CC[C@@H](CO)Nc1nc(NCc2ccccc2)c2ncn(C(C)C)c2n1 [S-Roscovitine]
EC50 (VZV [1]; [8]): 1 µM
EC50 (VZV [2]; [9]): 2.5 µM

CC[C@H](CO)Nc1nc(NCc2ccccc2)c2ncn(C(C)C)c2n1 [R-Roscovitine]
EC50 (VZV [1]; Human alphaherpesvirus 3, 48 h): 3 µM
EC50 (VZV [2]; [10]): 3.5 µM

OC[C@H]1O[C@@H](n2cnc3cc(Cl)c(Cl)cc32)[C@H](O)[C@@H]1O [DRB, Dichloro-β-D-ribofurano-sylbenzimidazole]
EC50 (VZV [1]; [8]): 2 µM
EC50 (VZV [2]; [9]): 5 µM
antiviral effects in SOC compared with cultured HFFs (VZV-BAC-Luc [3]): similar
effect on total flux in skin explants (VZV-BAC-Luc [3]): reduced the total flux
Cell Growth Arrest Dose (HFFs; HFFs): 50 µM

N[C@@H](Cn1ccc(=O)c(O)c1)C(=O)O [L-mimosine]
EC50 (VZV [1]; Human alphaherpesvirus 3, 48 h): 50 µM
EC50 (VZV [2]; [10]): 70 µM
Selective Index (VZV [2]): 43
antiviral effects in SOC compared with cultured HFFs (VZV-BAC-Luc [3]): similar
effect on total flux in skin explants (VZV-BAC-Luc [3]): reduced the total flux
Cell Growth Arrest Dose (HFFs; HFFs): 300 µM
Cytotoxic Dose (HFFs; human, 48 h): 3000 µM

Nc1nc2c(ncn2COCCO)c(=O)[nH]1 [Acyclovir]
EC50 (VZV [1]; Human alphaherpesvirus 3, 48 h): 5 µM
EC50 (VZV [2]; [10]): 4 µM
tolerance in Neutral Red assay (HFFs): tolerated up through the limit of their solubility
Cytotoxic Dose (HFFs; human, 48 h): 1.0 × 10^3* μM

CCCCc1c(-c2ccc(O)cc2)[nH]c2nccnc12 [Aloisine A]
EC50 (VZV [1]; Human alphaherpesvirus 3, 48 h): 2 µM
EC50 (VZV [2]; [10]): 2.5 µM
EC50 (VZV [2]; Human alphaherpesvirus 3, read-out: EC50 values): 2 to 4 µM
antiviral effects in SOC compared with cultured HFFs (VZV-BAC-Luc [3]): much lower
effect on total flux in skin explants (VZV-BAC-Luc [3]): increased
tolerance in Neutral Red assay (HFFs; HFFs, culture medium at 37°C): tolerated up through the limit of their solubility
Cell Growth Arrest Dose (HFFs; HFFs): 20 µM

C[C@@]1(CO)[C@H](O)CC[C@@]2(C)[C@H]1CC[C@H]1C[C@@H]3C[C@@]12CC[C@]3(O)CO [Aphidicolin]
Selective Index (VZV [2]): 833
antiviral effects in SOC compared with cultured HFFs (VZV-BAC-Luc [3]): similar
effect on total flux in skin explants (VZV-BAC-Luc [3]): reduced the total flux
tolerance in Neutral Red assay (HFFs; HFFs, culture medium at 37°C): tolerated up through the limit of their solubility

CC[C@H](CO)Nc1nc(NCc2ccccc2)c2ncn(C(C)C)c2n1 (racemic) [Roscovitine (racemic), Roscovitine]
EC50 (VZV [2]; [10]): 4 µM
antiviral effects in SOC compared with cultured HFFs (VZV-BAC-Luc [3]): similar
effect on total flux in skin explants (VZV-BAC-Luc [3]): reduced the total flux
Avg. VZV Growth Rate (VZV-BAC-Luc [4]; [11]): 0.13 Log10 photons/sec/day
Avg. VZV Growth Rate (VZV-BAC-Luc [4]; [12]): 0.12 Log10 photons/sec/day
Avg. VZV Growth Rate (VZV-BAC-Luc [4]; [13]): 0.24 Log10 photons/sec/day
Avg. VZV Growth Rate (VZV-BAC-Luc [4]; [14]): 0.26 Log10 photons/sec/day
effect on VZV growth rate in vivo (VZV-BAC-Luc [4]): significantly reduced VZV growth rates
isolation of a resistant strain of VZV (VZV [5]): failed
reversibility of antiviral effect (VZV [6]): reversible
cytotoxicity by histopathological analysis of skin tissue (skin tissue): neither DMSO nor roscovitine was cytotoxic
Mortality [7, 11]: 0/5
ABWD [7, 12]: −0.10 grams
Mortality [7, 12]: 0/4
ABWD [7, 13]: −1.60 grams
Mortality [7, 13]: 0/7
ABWD [7, 14]: 0.36 grams
Mortality [7, 14]: 0/5

O=C(O)CP(=O)(O)O [Phosphonoacetic acid (PAA), Phosphonoacetic acid]
EC50 (VZV [1]; Human alphaherpesvirus 3, 48 h): 500 µM
EC50 (VZV [2]; [10]): 300 µM
Cytotoxic Dose (HFFs; human, 48 h): 15000 µM

C[S+](C)[O-] [DMSO, Dimethylsulfoxide]
EC50 (VZV [2]; [9]): 75000 µM
effect on cell growth (HFFs; HFFs, 400 mM): inhibited cell growth slightly
concentration with no effect in Neutral Red assay (HFFs; HFFs, 48 h): up to 150 mM
Cytotoxic Dose (HFFs; [15]): >400000 µM

CC(C)[C@H](CO)Nc1nc(Nc2cccc(Cl)c2)c2ncn(C(C)C)c2n1 [Purvalanol A]
Selective Index (VZV [2]): 570
antiviral effects in SOC compared with cultured HFFs (VZV-BAC-Luc [3]): much lower
effect on total flux in skin explants (VZV-BAC-Luc [3]): increased
Avg. VZV Growth Rate (VZV-BAC-Luc [4]; 10 mg/kg/day, daily i.p. injection): 0.37 Log10 photons/sec/day
effect on VZV growth rate in vivo (VZV-BAC-Luc [4]): not effective at reducing the rate of VZV growth
effect on VZV growth rate in vivo (VZV-BAC-Luc [4]; listed as purvalanol A): No difference
Cell Growth Arrest Dose (HFFs; HFFs): 10 µM
Cytotoxic Dose (HFFs; [15]): 20 µM
ABWD ([7]; 20 mg/kg/day, daily i.p. injection): −2.96 grams
tolerability in mice ([7]; i.p. injection, 20 or 10 mg/kg/day): not as well tolerated as roscovitine

CN[C@@H]1C[C@H]2O[C@@](C)([C@@H]1OC)n1c3ccccc3c3c4c(c5c6ccccc6n2c5c31)C(=O)NC4 [staurosporine]
live cells after treatment (HFFs; HFFs, 35 nM, positive control for cell death): No live cells were detected
